Consider two molecules from article doi:10.1101/2025.11.20.689572v1 (biorxiv, 2025).

In one assay the target is T1, D3 (Homo sapiens, UniProt P35462).
T1 construct: gene DRD3; full-length receptor; HEK293 cell membranes
Nature of the assay: competitive radioligand binding, HEK293 membranes. The source says: competitive radioligand binding, HEK293 membranes on D3

Another assay addresses T2, M3 (Homo sapiens, UniProt P20309).
T2 construct: gene CHRM3; full-length receptor; HEK293 with TRUPATH sensors (function)
Nature of the assay: competitive radioligand binding, HEK293 membranes. The source says:
competitive radioligand binding, HEK293 membranes on M3

Another assay has as its target T3, M2 (Homo sapiens, UniProt P08172).
T3 construct: gene CHRM2; full-length receptor; HEK293 with TRUPATH sensors (function)
T3 sequence (P08172 1-466): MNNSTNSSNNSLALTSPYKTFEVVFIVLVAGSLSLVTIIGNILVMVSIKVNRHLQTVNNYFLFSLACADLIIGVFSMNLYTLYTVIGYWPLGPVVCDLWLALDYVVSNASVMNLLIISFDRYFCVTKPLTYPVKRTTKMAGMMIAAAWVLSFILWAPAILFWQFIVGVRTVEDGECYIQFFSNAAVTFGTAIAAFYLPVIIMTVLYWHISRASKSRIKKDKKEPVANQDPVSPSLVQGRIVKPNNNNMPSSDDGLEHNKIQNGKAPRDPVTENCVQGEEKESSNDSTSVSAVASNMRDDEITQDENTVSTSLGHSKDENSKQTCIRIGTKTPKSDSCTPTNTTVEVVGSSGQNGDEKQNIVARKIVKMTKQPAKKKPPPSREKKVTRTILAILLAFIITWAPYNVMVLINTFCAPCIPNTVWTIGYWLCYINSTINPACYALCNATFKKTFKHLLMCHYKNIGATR
Put plainly: TRUPATH BRET2 G protein dissociation, HEK293. It counts as cell-based. The conditions noted are these: HBSS, […] HEPES pH […] °C; agonist mode.

The target in the next assay is T4, α2C (Homo sapiens, UniProt P18825).
T4 construct: gene ADRA2C; full-length receptor; HEK293 cell membranes
T4 sequence (P18825 whole entry): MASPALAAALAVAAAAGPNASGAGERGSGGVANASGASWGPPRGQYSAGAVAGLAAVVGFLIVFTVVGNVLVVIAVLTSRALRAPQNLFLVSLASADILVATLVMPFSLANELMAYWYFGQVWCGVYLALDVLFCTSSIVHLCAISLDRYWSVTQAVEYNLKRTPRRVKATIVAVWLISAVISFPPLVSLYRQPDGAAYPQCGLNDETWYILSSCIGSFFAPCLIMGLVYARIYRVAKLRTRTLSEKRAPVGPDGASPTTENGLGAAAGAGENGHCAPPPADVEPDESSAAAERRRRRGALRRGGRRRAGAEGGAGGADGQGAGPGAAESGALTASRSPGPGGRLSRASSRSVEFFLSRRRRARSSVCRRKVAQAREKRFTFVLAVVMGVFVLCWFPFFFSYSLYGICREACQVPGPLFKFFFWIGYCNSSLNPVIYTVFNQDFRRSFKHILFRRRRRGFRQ
Put plainly: competitive radioligand binding, HEK293 membranes. The source says:
competitive radioligand binding, HEK293 membranes on α2C

The target of another assay is T5, M1 (Homo sapiens, UniProt P11229).
T5 construct: gene CHRM1; full-length receptor; HEK293 with TRUPATH sensors (function)
T5 sequence (P11229 1-460): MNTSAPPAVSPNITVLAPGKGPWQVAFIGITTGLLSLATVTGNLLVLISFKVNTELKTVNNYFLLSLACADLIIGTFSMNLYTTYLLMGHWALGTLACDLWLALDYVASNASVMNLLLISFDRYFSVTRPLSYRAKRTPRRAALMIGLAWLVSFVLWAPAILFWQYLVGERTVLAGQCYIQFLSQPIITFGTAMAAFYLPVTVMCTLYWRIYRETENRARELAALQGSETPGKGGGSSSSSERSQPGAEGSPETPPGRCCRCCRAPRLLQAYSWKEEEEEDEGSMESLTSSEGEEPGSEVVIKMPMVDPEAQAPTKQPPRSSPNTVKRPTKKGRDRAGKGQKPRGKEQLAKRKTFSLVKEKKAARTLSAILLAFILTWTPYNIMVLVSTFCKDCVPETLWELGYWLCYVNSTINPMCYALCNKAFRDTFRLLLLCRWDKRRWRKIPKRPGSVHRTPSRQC
Put plainly: TRUPATH BRET2 G protein dissociation, HEK293. Type of assay: cell-based. The following applies: HBSS, […] HEPES pH […] °C; agonist mode.

The target in a further assay is T6, 5-HT1B (Homo sapiens, UniProt P28222).
T6 construct: gene HTR1B; full-length receptor; HEK293 cell membranes
T6 sequence (P28222 whole entry): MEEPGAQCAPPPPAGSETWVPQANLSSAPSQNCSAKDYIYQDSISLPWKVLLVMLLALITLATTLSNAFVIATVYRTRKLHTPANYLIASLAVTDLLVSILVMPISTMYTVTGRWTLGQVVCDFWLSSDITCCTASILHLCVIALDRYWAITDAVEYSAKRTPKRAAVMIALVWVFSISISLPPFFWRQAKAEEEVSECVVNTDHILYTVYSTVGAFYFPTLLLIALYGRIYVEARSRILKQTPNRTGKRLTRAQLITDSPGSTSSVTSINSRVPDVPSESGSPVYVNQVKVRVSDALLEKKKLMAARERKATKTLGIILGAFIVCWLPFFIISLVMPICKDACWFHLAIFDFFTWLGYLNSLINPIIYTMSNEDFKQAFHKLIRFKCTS
Nature of the assay: competitive radioligand binding, HEK293 membranes. The source says: competitive radioligand binding, HEK293 membranes on 5-HT1B

The next assay concerns the target T7, CHRM2 (Homo sapiens, UniProt P08172).
T7 sequence (P08172 1-466): T3 sequence (P08172 1-466)
Put plainly: cell-based. The arrangement: PRESTO-Tango beta-arrestin2 recruitment, luciferase luminescence, concentration-response. The conditions noted are these: HTLA, Assay=Tango, agonist mode, % of control agonist. How it is done: (§1) Off-target agonism across the human GPCRome was profiled using PRESTO-Tango, following established protocols with minor adaptations [10]–[12]. […] After ~6 h recovery, cells were transfected with 20 ng plasmid DNA per well and incubated overnight. The next day, 10 µL of test compound (prepared in DMEM + 1% dFBS) was added, and plates were incubated overnight. Media and compounds were removed, and 20 µL per well of Bright-Glo luciferase reagent diluted in assay buffer (Hank’s Balanced Salt Solution (HBSS), 20 mM HEPES, pH 7.4) was added. After 20 min at room temperature (dark), luminescence was recorded. Each plate included the dopamine D2 receptor (DRD2) stimulated with 100 nM quinpirole as a positive control. For the GPCRome screen, each receptor was tested in quadruplicate at 0 and 10 µM compound (final). Responses were expressed as fold change relative to the basal (0 µM) condition. Follow-up concentration–response assays were performed under identical conditions except that serial dilutions of compounds (maximum ~30 µM, final) were added to generate full concentration–response curves.

Another assay deals with HTR1D (Homo sapiens, UniProt P28221). Nature of the assay: cell-based. The arrangement: PRESTO-Tango beta-arrestin2 recruitment, luciferase luminescence, concentration-response. The conditions noted are these: HTLA, Assay=Tango, agonist mode, % of control agonist. As for the experimental part: as §1
HTR1D, sequence (P28221 whole entry): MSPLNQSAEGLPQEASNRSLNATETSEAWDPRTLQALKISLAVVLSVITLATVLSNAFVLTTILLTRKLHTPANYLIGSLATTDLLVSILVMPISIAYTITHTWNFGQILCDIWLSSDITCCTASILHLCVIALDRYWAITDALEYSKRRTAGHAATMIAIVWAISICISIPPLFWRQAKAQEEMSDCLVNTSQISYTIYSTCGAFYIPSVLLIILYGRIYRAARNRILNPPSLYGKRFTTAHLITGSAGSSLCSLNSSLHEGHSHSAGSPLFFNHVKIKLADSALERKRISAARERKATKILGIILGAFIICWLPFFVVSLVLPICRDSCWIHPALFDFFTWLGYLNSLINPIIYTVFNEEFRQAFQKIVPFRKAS
Another assay addresses CHRM3 (Homo sapiens, UniProt P20309). Put plainly: cell-based. Also on record: PRESTO-Tango beta-arrestin2 recruitment, luciferase luminescence, concentration-response. The following applies: HTLA, Assay=Tango, agonist mode, % of control agonist. As for the experimental part: as §1
In another assay the target is T8, M5 (Homo sapiens, UniProt P08912).
T8 construct: gene CHRM5; full-length receptor; HEK293 with TRUPATH sensors (function)
T8 sequence (P08912 1-532): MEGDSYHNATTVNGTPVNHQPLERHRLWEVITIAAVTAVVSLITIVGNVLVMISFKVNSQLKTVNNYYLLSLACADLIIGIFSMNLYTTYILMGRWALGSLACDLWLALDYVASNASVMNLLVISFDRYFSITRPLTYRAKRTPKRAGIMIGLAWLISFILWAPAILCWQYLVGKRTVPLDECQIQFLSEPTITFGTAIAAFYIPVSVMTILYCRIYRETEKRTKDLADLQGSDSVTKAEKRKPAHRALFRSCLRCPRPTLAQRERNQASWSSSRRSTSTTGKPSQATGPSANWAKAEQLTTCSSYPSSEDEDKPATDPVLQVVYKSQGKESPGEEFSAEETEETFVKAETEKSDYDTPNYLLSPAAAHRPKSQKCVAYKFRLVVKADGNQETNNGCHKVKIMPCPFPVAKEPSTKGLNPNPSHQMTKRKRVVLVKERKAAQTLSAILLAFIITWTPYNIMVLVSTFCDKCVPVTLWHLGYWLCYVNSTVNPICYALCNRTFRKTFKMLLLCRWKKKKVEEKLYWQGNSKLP
Put plainly: TRUPATH BRET2 G protein dissociation, HEK293. It counts as cell-based. The following applies: HBSS, […] HEPES pH […] °C; agonist mode. A general note: Bioluminescence resonance energy transfer reports proximity on the nanometre scale.

Setting [1] is: read-out: N-Desmethyl Xanomeline.

Structures are written as SMILES. Read-outs that look alike come from different tables or passages of the source.

T1 sequence (P35462 whole entry): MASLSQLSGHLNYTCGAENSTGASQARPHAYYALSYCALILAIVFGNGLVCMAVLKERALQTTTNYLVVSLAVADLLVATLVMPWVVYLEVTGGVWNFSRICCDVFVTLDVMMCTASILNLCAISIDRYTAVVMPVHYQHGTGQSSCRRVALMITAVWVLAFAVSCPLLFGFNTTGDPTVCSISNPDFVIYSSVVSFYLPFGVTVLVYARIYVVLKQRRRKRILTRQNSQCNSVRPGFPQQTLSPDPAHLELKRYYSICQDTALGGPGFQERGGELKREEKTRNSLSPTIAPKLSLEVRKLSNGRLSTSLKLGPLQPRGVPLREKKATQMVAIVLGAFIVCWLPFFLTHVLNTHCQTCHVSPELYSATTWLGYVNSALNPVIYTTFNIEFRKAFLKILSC
T2 sequence (P20309 whole entry): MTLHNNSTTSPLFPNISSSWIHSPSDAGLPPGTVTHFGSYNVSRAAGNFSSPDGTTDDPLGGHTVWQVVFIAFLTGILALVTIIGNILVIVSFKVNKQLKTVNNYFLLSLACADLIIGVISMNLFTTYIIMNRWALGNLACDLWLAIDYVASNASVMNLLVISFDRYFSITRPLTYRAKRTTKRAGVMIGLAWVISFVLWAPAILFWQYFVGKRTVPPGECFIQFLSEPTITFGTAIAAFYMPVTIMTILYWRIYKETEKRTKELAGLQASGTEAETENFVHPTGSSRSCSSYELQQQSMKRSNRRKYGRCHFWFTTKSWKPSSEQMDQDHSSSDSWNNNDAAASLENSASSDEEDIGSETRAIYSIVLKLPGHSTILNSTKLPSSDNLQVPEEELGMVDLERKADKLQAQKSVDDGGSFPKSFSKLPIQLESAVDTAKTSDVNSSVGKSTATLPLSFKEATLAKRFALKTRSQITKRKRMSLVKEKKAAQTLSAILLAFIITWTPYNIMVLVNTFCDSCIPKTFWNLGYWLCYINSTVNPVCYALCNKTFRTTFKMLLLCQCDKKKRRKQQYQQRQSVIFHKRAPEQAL
CHRM3, sequence (P20309 whole entry): as above

As to `CCCCCCOc1nsnc1C1=CCCNC1` [N-desmethylxanomeline], the Ki (in general, the equilibrium dissociation constant of an inhibitor or competing ligand from its target) was 646 nM on D3, 112 nM at M3, 209 nM on α2C and 178 nM on 5-HT1B. Also, the EC50 entry at M2, on M1 and at M5 was “differential activation of M1-M5 muscarinic receptor transducers” each time. Further, the Emax on CHRM2 (setting [1]) is 42.6%; at HTR1D (setting [1]), 51.2%; at CHRM3 (setting [1]), 32.1%.
For the molecule `CCCCCCOc1nsnc1C1=CCCN(C)C1` [Xanomeline], the Ki was 251 nM on D3, 74.1 nM on M3, 158 nM on α2C and 724 nM on 5-HT1B. The EC50 result at M2 is “differential activation of M1-M5 muscarinic receptor transducers”; on M1 it was “xanomeline being more potent and efficacious than carbachol at M1 and M4 muscarinic receptors”; on M5 it was “differential activation of M1-M5 muscarinic receptor transducers”. The results for the Emax at CHRM2 (read-out: Xanomeline), on HTR1D (read-out: Xanomeline) and on CHRM3 (read-out: Xanomeline) were 45.5%, 73.3% and 42.8%, respectively.
